The source of these data is patent publication US12180249B1, “Compositions and methods for selective labeling of secondary amines” (Emory University, priority 2021, dated 2024).

The nature of the data set: chemical stability of the triazene-coupling product under different conditions. It is filed as physicochemical. The following applies: incubated in water:ACN mixture for 24 h. As for the experimental part:
The chemical stability of the triazene-coupling product was tested under different conditions. The triazene-coupling product acts as a protecting group for secondary amines and tolerates various coupling reagents, such as N,N′-diisopropylcarbodiimide (DIC), and bases, such as N,N-diisopropylethylamine (DIEA) and pyridine (PPR), which is required for Fmoc peptide synthesis. It is also stable to a strong protein disulfide reducing agent tris(2-carboxyethyl) phosphine (TCEP) and click chemistry (CuAAC) conditions. […] This is in contrast to the stability of the azo coupling product with Tyr, which degrades quickly in the presence of sodium dithionate to generate modified tyrosine
Even though the triazene-secondary amine linkage is stable under physiologically relevant conditions, experiments were performed to determine whether the conjugate can be decoupled in a traceless manner. Indeed, exposure of the triazene modified peptide 4 MDz-AKmeF to acidic conditions (10% TFA in H2O) led to its rapid cleavage in 5 min to unchanged peptide AKmeF, as observed by HPLC and MS analysis. It is noteworthy that the acidic cleavage generated original coupling partners in an unperturbed manner. In contrast, a handful of the coupling reactions are reversible, but the products derived from decoupling are modified versions of the original reactants. […]

For the molecule `COC(=O)C1CCCN1N=Nc1ccc(OC)cc1` (stereo not shown) [4 MDz-Pro-OMe], the “decomposition of the triazene-coupling product” value is recorded as “no decomposition”.
